Laboratory results as given in ChEMBL document CHEMBL4819085, “Dipyridyl-substituted thiosemicarbazone as a potent broad-spectrum inhibitor of metallo-β-lactamases” (Bioorg Med Chem, 2021).
Converted amounts (≈) assume the structure as drawn. The source made the active and inactive calls. The calls are words filed in the database; no cut-off is given here.

Tests used:
Bacteria [1] = test: Inhibition of bacterial ImiS expressed in Escherichia coli BL21 (DE3) at 20 uM using meropenem as substrate incubated for 1 hr by spectrometry analysis relative to control
Bacteria [2] = test: Inhibition of bacterial L1 at 20 uM using meropenem as substrate incubated for 1 hr by spectrometry analysis relative to control
[3] = (§1) Inhibition of bacterial NDM-1 expressed in Escherichia coli BL21 (DE3) using meropenem as substrate incubated for 1 hr by spectrometry analysis; set-up: species or system Bacteria
Bacteria [4] = test: as §1
[5] = (§2) Inhibition of bacterial ImiS expressed in Escherichia coli BL21 (DE3) using meropenem as substrate incubated for 1 hr by spectrometry analysis; set-up: species or system Bacteria
Bacteria [6] = test: as §2
Staphylococcus aureus = test: Antibacterial activity against methicillin-resistant Staphylococcus aureus assessed as reduction in bacterial growth incubated for 24 hrs by broth microdilution method; format: functional
Escherichia coli [7] = test: Antibacterial activity against Escherichia coli 01 assessed as reduction in bacterial growth incubated for 24 hrs by broth microdilution method; format: functional
Escherichia coli [8] = test: Antibacterial activity against Escherichia coli 04 assessed as reduction in bacterial growth incubated for 24 hrs by broth microdilution method; format: functional
Klebsiella pneumoniae [9] = test: Antibacterial activity against Klebsiella pneumoniae assessed as reduction in bacterial growth incubated for 24 hrs by broth microdilution method; format: functional
Pseudomonas aeruginosa = test: Antibacterial activity against Carbapenem-resistant Pseudomonas aeruginosa assessed as reduction in bacterial growth incubated for 24 hrs by broth microdilution method; format: functional
Escherichia coli [10] = test: Potentiation of meropenem-induced antibacterial activity against Escherichia coli 01 assessed as meropenem MIC incubated for 24 hrs by broth microdilution method; format: functional
Escherichia coli [11] = test: Inhibition of Escherichia coli IMP-1 assessed as potentiation of meropenem-induced antibacterial activity by measuring meropenem MIC incubated for 24 hrs by broth microdilution method
Escherichia coli [12] = test: Inhibition of Escherichia coli L1 assessed as potentiation of meropenem-induced antibacterial activity by measuring meropenem MIC incubated for 24 hrs by broth microdilution method
Escherichia coli [13] = test: Antibacterial activity against Escherichia coli producing VIM-2 assessed as fractional inhibitory concentration index incubated for 24 hrs in presence of meropenem by checkerboard assay; format: functional
Klebsiella pneumoniae [14] = test: Antibacterial activity against Klebsiella pneumoniae assessed as fractional inhibitory concentration index incubated for 24 hrs in presence of meropenem by checkerboard assay; format: functional
Escherichia coli [15] = test: Antibacterial activity against Escherichia coli producing IMP-1 assessed as fractional inhibitory concentration index incubated for 24 hrs in presence of meropenem by checkerboard assay; format: functional, organism-based
Escherichia coli [16] = test: Bactericidal activity against Escherichia coli producing NDM-1 assessed as reduction in bacterial viability upto 64 ug/ml incubated for 12 hrs by time kill assay; format: functional; settings: dose microg/ml <=64
Klebsiella pneumoniae [17] = test: In vivo antibacterial activity against Klebsiella pneumoniae producing NDM-1 infected in mouse assessed as reduction in bacterial load in liver at 2 mg/kg, ip in presence of meropenem; format: functional, organism-based
[18] = Binding affinity to Zn2+ ion assessed as UV absorption peak at 435 nm at 50 uM incubated for 5 mins in presence of ZnCl2 by spectrometry analysis
Klebsiella pneumoniae [19] = test: Potentiation of meropenem-induced antibacterial activity against Klebsiella pneumoniae assessed as fold reduction in meropenem MIC incubated for 24 hrs by broth microdilution method relative to meropenem alone; format: functional
Escherichia coli [20] = test: Inhibition of Escherichia coli NDM-1 assessed as potentiation of meropenem-induced antibacterial activity by measuring fold reduction in meropenem MIC up to 8 ug/ml incubated for 24 hrs by broth microdilution method relative to meropenem alone; settings: dose microg/ml <=8, time 24.0 hrs
Escherichia coli [21] = test: Inhibition of Escherichia coli IMP-1 assessed as potentiation of meropenem-induced antibacterial activity by measuring fold reduction in meropenem MIC up to 8 ug/ml incubated for 24 hrs by broth microdilution method relative to meropenem alone; settings: dose microg/ml <=8, time 24.0 hrs
Escherichia coli [22] = test: Inhibition of Escherichia coli NDM-1 assessed as bacterial growth rate in presence of ZnCl2 and meropenem relative to control; set-up: scale not given: the % may be the effect or the level left

CN(C(=S)NN=C(c1ccccn1)c1ccccn1)C1CCCCC1
inhibition (Bacteria [1]): > 90% | inhibition (Bacteria [2]): > 90% | IC50 [3]: 21 nM | inhibition (Bacteria [4]): Dose-Dependent Effect | IC50 [5]: 75 nM | inhibition (Bacteria [6]): Dose-Dependent Effect | MIC (Staphylococcus aureus): 32 µg/mL (≈ 90.5 µM) | MIC (Escherichia coli [7]): 16 µg/mL (≈ 45.3 µM) | MIC (Escherichia coli [8]): 16 µg/mL (≈ 45.3 µM) | MIC (Klebsiella pneumoniae [9]): 32 µg/mL (≈ 90.5 µM) | MIC (Pseudomonas aeruginosa): 16 µg/mL (≈ 45.3 µM) | MIC (Escherichia coli [10]): 32 µg/mL | MIC (Escherichia coli [11]): 16 µg/mL | MIC (Escherichia coli [12]): 32 µg/mL | FIC (Escherichia coli [13]): 0.313 | FIC (Klebsiella pneumoniae [14]): 0.313 | Activity (Escherichia coli [15]): inactive | inhibition (INH) (Escherichia coli [16]): 99% | inhibition (Klebsiella pneumoniae [17]): Active | Activity [18]: Active | fold change (FC) (Klebsiella pneumoniae [19]): 8 | fold change (FC) (Escherichia coli [20]): 256 | fold change (FC) (Escherichia coli [21]): 8 | Activity (Escherichia coli [22]): 65%
